According to patent US20250051403A1, “ANTIMICROBIAL PEPTIDES, VARIANTS AND CHEMICAL ANALOGUES THEREOF AND THEIR USES” (priority 2021, published 2025):
Read-outs that look alike come from different tables or passages of the source. Positions of bridges follow the written chain, without caps; N, C: chain ends. Residues, ends and D or L forms follow the SMILES beside them.

Key:
P. aeruginosa [1] = assay: Serial passage/resistance assay; assay type: cell-based, Pseudomonas aeruginosa; conditions: continuous exposure to sub-lethal doses, 30 days
human erythrocytes = assay: Haemolytic assay; assay type: cell-based
Experimental: The hemolytic activity of the peptides was determined using fresh human erythrocytes from healthy donors. Blood was centrifuged and the erythrocytes were washed three times with a phosphate-buffered saline (PBS: 35 mM phosphate buffer/150 mM NaCl, pH 7.4). […] Samples were incubated at 37° C. for 60 min. After incubating the mixtures were centrifuged at 1,500 rpm for 10 min. The release of hemoglobin was monitored by measuring the absorbance (Abs) of the supernatant at 405 nm. Hemolytic rates of 0 and 100% were determined in PBS and 0.1% Triton X-100, respectively. The percentage of hemolysis was calculated by employing the following equation: Percentage hemolysis=[([…])/(Abs405 nm in 0.1% Triton X-100−Abs405 nm in PBS)]×100.

[2] = Cytotoxicity, resazurin cell viability; assay type: cell-based, human; conditions: human, 80 μM, 48 h
Experimental: (§1) The toxicity of Michelicin on human cells was tested as previously described (Borie et al., 2017; Oyama et al., 2017). Briefly, human cells were cultured in Dulbecco's modified essential medium (DMEM) supplemented with 10% fetal calf serum (FCS), 1% L-glutamine and 1% antibiotics (all from Invitrogen). Cells were routinely grown in onto 25 cm^2 flasks maintained in a 5% CO2 incubator at 37° C. For toxicity assay, cells grown on 25 cm^2 flasks were detached using trypsin-EDTA solution (Thermofisher) and seeded into 96-well cell culture plates (Greiner Bio-one) at approximately 10^4 cells per well (counted using Mallasez's chamber). The cells were grown at 37° C. in a 5% CO2 incubator until they reached confluence (approximately 48-72 h of seeding). Wells were then aspirated and increasing concentrations of AMP were added to the cells and incubated for a further 48 h at 37° C. in a 5% CO2 incubator. The wells were then emptied, and cell viability was evaluated using resazurin based in vitro toxicity assay kit (Sigma-Aldrich) following manufacturer's instructions. Briefly, resazurin stock solution was diluted 1:100 in sterile PBS containing calcium and magnesium (PBS++, pH 7.4) and emptied wells were filled with 100 μL of the resazurin diluted solution. After 4 h incubation at 37° C. with the peptide treated cells, fluorescence intensity was measured using microplate reader (SynerMix, Bioteck) (excitation wavelength of 530 nm/emission wavelength of 590 nm). The fluorescence values were normalized by the controls and expressed as percentage of cell viability. The IC50 values of tested AMP on cell viability (i.e. the concentration of peptides causing a reduction of 50% of the cell viability) were calculated using GraphPad® Prism 7 software. Two cell lines were tested: Human Bronchial Epithelial Cell Line (BEAS; ATCC CRL-9609) and Human umbilical vein endothelial cell (HUVEC).

[3] = test system: Human Bronchial Epithelial Cell Line (BEAS; ATCC CRL-9609); assay: Cytotoxicity, resazurin cell viability; assay type: cell-based; conditions: even at doses>80 μM
Experimental: as §1

[4] = test system: Human umbilical vein endothelial cell (HUVEC); assay: Cytotoxicity, resazurin cell viability; assay type: cell-based; conditions: even at doses>80 μM
Experimental: as §1

[5] = test system: human lung fibroblasts (IMR90 cells (ATCC CCL-186)); assay: Cytotoxicity; assay type: cell-based; conditions: even at doses>80 μM
[6] = test system: Mycobacterium tuberculosis mc^26230
P. aeruginosa [7] = test system: P. aeruginosa
[8] = test system: Bacillus subtilis (ATCC 6633); assay: MIC, broth microdilution; assay type: cell-based; conditions: Table IV, strain description
Experimental: To standardize the bacterial cell suspension for assay of antibacterial activity, some colonies of each strain grown overnight on MHA (Mueller Hinton Agar. ROTH) plates were suspended in MHB (Mueller Hinton Broth. ROTH) or MHB saline (Mueller Hinton Broth containing 565 mM NaCl) and incubated at 37° C. or 30° C. until visible turbid. This log-phase inoculum was diluted 1:100 in the same culture media. Using sterile 96-well microtiter plates (CELLSTAR. Greiner bio-one), serial 2-fold dilutions (40 to 0.78 μM) of each peptide were prepared in cation-adjusted acetic acid 0.02% with 0.4% BSA (Bovin Serum Albumin fraction V. Boehringer) at a volume of 10 μL/well. Each well was inoculated with 100 μL of the standardized bacterial inoculum, corresponding to a final test concentration of about 10^5 CFU/mL. Antimicrobial activities were expressed as the MIC (Minimal Inhibitory Concentration), the lowest concentration of peptide at which 100% inhibition of microbial growth was observed after 24 h of incubation at 37° C. or 30° C. by measuring OD600 in a microtiter plate reader. The minimal bactericidal concentration (MBC) was defined as the peptide concentration where no colony growth was observed.
The same experiments as described in 1) were performed. For the evaluation of antimicrobial activity against some other strains, a resazurin microtiter assay was used as explained hereinafter.

[9] = test system: B. subtilis nisin resistant (DSMZ 347); conditions: Table IV, strain description
P. aeruginosa [10] = assay: Membrane permeabilization assay (propidium iodide); assay type: cell-based, Pseudomonas aeruginosa; conditions: 2.5 min of incubation, 37° C., 3 times their MIC; CTAB at 300 μM
Experimental: Several tests were performed to determine the mechanism of the antimicrobial activity of the peptides of the invention. Most of the cationic AMP can increase the permeability of the bacterial membrane through pore-forming activity. We evaluated the ability of Michelicin to cause pore-formation using P. aeruginosa as model bacteria. Permeabilization of the bacterial membrane by Michelicin was evaluated using the cell-impermeable DNA probe propidium iodide (PI) (Di Pasquale et al., 2010; Oyama et al., 2017). PI can interact with DNA/RNA, leading to increase in fluorescence of the molecule. The bacterial membrane is impermeable to PI preventing its interaction with intracellular DNA/RNA. Thus, fluorescence of PI (expressed as RFU: relative fluorescence unit) only increases if membrane integrity is compromised through pore-formation. We measured the time-dependent effect of our peptide and other molecules on PI fluorescence at 37° C., all molecules being tested at 3 times their MIC. […] Kinetics of fluorescence variations (excitation at 530 nm/emission at 590 nm) were recorded using a microplate reader (SynergyMx, Bioteck) over 80 min period at 37° C. […] The permeabilization effect of the tested compound (i.e., Michelicin, Alvinellacin, Arenicin, and control, PMB or CTAB) was expressed as percentage of total permeabilization caused by CTAB.

CO/N=C1\CN(c2nc3c(cc2F)c(=O)c(C(=O)O)cn3C2CC2)CC1CN (stereo not drawn) [Gemifloxacin]
Resistance induction / fold increase in initial MIC (in words) (P. aeruginosa [1]): relevant

CC[C@H](C)[C@@H]1NC(=O)[C@H](CCCNC(=N)N)NC(=O)[C@H](C(C)C)NC(=O)[C@@H](NC(=O)[C@@H](NC(=O)[C@@H](N)CCCNC(=N)N)C(C)C)CSSC[C@@H](C(=O)N[C@@H](Cc2c[nH]c3ccccc23)C(=O)N[C@@H](CC(N)=O)C(=O)N[C@H](C(=O)O)[C@@H](C)O)NC(=O)[C@H](CCCNC(=N)N)NC(=O)[C@H](CCCNC(=N)N)NC(=O)[C@H](Cc2ccc(O)cc2)NC(=O)[C@@H]2CSSC[C@H](NC1=O)C(=O)N[C@@H](CCCNC(=N)N)C(=O)N[C@@H](CC(N)=O)C(=O)NCC(=O)N[C@@H](CCCNC(=N)N)C(=O)N2 [Michelicin, RVC1VRIC2RNGRC3YRRC4WNT] (H-RVCVRICRNGRCYRRCWNT-OH; disulfide 3-16, 7-12)
Effect on hemolysis (human erythrocytes; 1.2 to 40 μM, 60 min at 37° C., FIG. 2): far less than the effect of Arenicin
Hemolytic activity (human erythrocytes; even at doses>80 μM): not observed
viability at 48 h, 80 µM ([2]; BEAS human bronchial epithelial cells (ATCC CRL-9609), read-out: % of viability, BEAS cells): 100%
viability at 48 h, 80 µM ([2]; HUVEC (human umbilical vein endothelial cells), read-out: % of viability, HUVEC cells): 95%
Cytotoxic activity towards BEAS cells [3]: not observed
Cytotoxic activity towards HUVEC cells [4]: not observed
Cytotoxic activity towards IMR90 cells [5]: not observed
MIC with 565 mM NaCl (Vibrio alginolyticus): 0.62 to 1.25 µM
V. alginolyticus MIC (Vibrio alginolyticus): 1.25 to 2.5 µM
MIC (Vibrio alginolyticus; 24 h): 0.07 to 0.15 µM
M. tuberculosis mc^26230 MIC [6]: 12.3 to 13.0 µM
MIC [6]: 12.3 to 13.0 µM
M. smegmatis mc^2155 MIC (M. smegmatis mc^2155): 0.57 to 2.15 µM
P. aeruginosa MIC (P. aeruginosa [7]): 2.5 to 5 µM

Nisin
MIC Nisin [8]: (MIC Nisin < 0.09 μg/mL)
MIC Nisin [9]: MIC (Nisin 3 μg/mL)

polymyxin B [PMB]
Permeabilization (percentage of total permeabilization caused by CTAB) (P. aeruginosa [10]): 2-5%
